In article PMC10283505, “CVM-1118 (foslinanib), a 2-phenyl-4-quinolone derivative, promotes apoptosis and inhibits vasculogenic mimicry via targeting TRAP1” (Pathology and Oncology Research, 2023):

Legend:
[1] = tested on: CAKI-1; assay: NCI 60 cytotoxicity screening; assay type: cell-based; settings: Homo sapiens; CAKI-1, Renal
[2] = biological target: Renin receptor (ATP6IP2) (Homo sapiens, UniProt O75787); assay: Surface plasmon resonance (Biacore); assay type: binding; settings: ATP6IP2, SPR
[3] = biological target: T1, Catenin β-1 (Homo sapiens, UniProt P35222); assay: Surface plasmon resonance (Biacore); assay type: binding; settings: Catenin β-1, SPR
T1 sequence (P35222 1-781): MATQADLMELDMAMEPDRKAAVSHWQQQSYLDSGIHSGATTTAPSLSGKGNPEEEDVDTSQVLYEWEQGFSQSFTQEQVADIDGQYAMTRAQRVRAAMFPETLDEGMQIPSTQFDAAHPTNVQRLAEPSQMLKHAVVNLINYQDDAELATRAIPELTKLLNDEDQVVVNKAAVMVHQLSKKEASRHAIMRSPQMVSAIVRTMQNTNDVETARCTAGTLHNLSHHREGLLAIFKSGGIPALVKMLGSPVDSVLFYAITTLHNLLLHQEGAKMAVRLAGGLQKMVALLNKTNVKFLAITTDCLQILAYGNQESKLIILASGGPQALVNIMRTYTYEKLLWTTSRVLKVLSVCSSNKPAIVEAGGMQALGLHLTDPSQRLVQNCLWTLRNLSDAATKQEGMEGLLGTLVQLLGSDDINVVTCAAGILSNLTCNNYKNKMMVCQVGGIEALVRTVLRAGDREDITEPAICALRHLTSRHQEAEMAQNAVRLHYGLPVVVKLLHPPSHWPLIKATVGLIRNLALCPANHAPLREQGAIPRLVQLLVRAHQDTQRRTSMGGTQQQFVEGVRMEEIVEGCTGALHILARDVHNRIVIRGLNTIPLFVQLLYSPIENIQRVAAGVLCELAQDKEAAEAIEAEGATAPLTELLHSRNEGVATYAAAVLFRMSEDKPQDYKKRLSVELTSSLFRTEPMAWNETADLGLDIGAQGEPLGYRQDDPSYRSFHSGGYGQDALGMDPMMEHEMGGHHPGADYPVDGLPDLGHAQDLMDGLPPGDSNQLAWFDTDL

[4] = biological target: T2, TRAP1 (Homo sapiens, UniProt Q12931); assay: In vitro ATPase assay; assay type: biochemical; settings: data not shown
T2 sequence (Q12931 60-704): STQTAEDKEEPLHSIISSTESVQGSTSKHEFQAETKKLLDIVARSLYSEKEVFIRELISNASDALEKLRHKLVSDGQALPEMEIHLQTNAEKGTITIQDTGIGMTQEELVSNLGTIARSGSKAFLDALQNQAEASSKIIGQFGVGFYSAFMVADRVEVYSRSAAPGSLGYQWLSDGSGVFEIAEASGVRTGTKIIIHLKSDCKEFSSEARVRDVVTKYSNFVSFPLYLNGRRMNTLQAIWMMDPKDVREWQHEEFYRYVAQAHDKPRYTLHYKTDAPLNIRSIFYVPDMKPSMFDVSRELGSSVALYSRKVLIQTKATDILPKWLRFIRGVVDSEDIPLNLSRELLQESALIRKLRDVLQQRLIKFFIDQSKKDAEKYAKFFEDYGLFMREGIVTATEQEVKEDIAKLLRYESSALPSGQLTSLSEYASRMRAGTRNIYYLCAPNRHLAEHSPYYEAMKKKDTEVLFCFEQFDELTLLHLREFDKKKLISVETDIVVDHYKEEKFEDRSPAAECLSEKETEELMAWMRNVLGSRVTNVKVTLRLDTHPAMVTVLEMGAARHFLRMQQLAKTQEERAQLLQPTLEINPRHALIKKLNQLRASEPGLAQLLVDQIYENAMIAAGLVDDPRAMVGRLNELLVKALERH

[5] = biological target: T2, TRAP1; assay: Western blot of TRAP1 protein level; assay type: cell-based; design: purchased Abcam ab123775
Procedure: The methods for detecting TRAP1 proteins were as follows: 4 × 10^5 SKOV-3 cells and 8 × 10^5 COLO-205 cells were seeded onto 6-well plates. After 18 h, the culture medium was changed to contain 50, 100, 200, and 400 nM CVM-1125, and samples were recovered for analysis at 24 or 48 h. To explore the pathway of CVM-1125 degradation of TRAP1 protein, the experimental design was as follows: 1 × 10^6 COLO-205 cells were seeded onto 6-well plates. After 18 h, the culture medium was changed to contain 200 nM CVM-1125, 25 µM chloroquine (CQ), and 2.5 µM MG132, and samples were recovered for analysis at 24 h. Cells at 80% confluence were collected with trypsin, centrifuged, and harvested by PBS into a sample buffer (1M Tris pH 6.8, 50% Glycerol, 10% SDS, 1% bromophenol blue, and 2-mercaptoethanol). Cell lysates were heated at 95°C for 10 min and loaded onto 10% SDS-PAGE. Proteins separated on the gel were transferred to a 0.45 μM PVDF membrane (Merk Milipore, IPVH00010) at 4°C overnight and was then blocked at room temperature with 5% skim milk for 30 min. The primary antibodies were diluted with 5% skim milk in PBS for β-actin (Sigma, A5441, 1:20,000) and TRAP1 (Santa Cruz, sc-13557, 1:100) and incubated for 2 h at room temperature. […]

[6] = tested on: OVCAR-3; assay: NCI 60 cytotoxicity screening; assay type: cell-based; settings: Homo sapiens; OVCAR-3, Ovarian

Sequence of Renin receptor (ATP6IP2) (O75787 17-350): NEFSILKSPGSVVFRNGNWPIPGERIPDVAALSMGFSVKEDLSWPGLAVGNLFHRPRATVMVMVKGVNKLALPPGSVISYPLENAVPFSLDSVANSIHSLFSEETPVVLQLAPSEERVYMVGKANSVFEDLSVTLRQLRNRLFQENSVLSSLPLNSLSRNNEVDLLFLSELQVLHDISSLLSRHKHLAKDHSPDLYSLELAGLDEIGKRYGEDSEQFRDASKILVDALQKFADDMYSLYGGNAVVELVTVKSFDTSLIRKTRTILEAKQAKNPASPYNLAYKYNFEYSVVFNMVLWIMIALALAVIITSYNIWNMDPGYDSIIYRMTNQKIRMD

COc1ccc2[nH]c(-c3cccc(F)c3)cc(=O)c2c1O [CVM-1125]
GI50 [1]: 46.7 nM | Dissociation (kd) [2]: 0.021 s⁻¹ | kon ([2]; read-out: Association (ka)): 122000 M⁻¹ s⁻¹ | Kd ([2]; read-out: KD (kd/ka)): 173 nM | Association (ka) [3]: No interaction | Dissociation (kd) [3]: No interaction | KD (kd/ka) [3]: No interaction | influence on the ATPase activity of TRAP1 [4]: no influence | TRAP1 protein levels ([5]; COLO205, 50–400 nM): reduced with increasing concentrations | TRAP1 protein levels ([5]; SKOV3, 50–400 nM): reduced with increasing concentrations | GI50 [6]: 19.1 nM
